Molecular target: T1, recombinant human MER (Homo sapiens, UniProt Q12866)
T1 construct: purchased Invitrogen
T1 sequence (Q12866 21-999): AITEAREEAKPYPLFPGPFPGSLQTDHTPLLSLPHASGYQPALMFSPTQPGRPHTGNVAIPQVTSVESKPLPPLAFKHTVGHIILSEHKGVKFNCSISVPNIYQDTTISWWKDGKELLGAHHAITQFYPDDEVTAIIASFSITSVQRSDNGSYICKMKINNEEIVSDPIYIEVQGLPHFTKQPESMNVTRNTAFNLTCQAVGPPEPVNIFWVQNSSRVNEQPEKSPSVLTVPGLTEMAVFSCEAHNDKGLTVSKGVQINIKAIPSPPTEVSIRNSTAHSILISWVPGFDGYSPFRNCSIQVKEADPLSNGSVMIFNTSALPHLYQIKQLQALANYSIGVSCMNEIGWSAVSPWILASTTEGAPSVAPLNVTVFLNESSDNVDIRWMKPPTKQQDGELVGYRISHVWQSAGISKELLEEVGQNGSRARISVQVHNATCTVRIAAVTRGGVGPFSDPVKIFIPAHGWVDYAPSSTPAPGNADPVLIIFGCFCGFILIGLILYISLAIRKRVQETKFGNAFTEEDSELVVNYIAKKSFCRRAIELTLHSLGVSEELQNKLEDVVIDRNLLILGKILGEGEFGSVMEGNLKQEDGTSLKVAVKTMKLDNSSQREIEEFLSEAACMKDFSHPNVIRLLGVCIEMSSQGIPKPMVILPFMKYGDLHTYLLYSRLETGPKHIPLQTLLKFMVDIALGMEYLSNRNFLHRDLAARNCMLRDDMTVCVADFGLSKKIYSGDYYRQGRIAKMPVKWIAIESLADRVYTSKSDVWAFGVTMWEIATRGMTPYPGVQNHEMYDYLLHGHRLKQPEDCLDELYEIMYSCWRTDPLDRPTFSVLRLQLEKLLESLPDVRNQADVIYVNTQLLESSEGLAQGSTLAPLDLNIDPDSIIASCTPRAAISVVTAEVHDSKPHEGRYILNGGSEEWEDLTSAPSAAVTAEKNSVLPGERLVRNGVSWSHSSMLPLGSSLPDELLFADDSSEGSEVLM
Assay: HTRF KinEASE-TK biochemical potency, MER
Details: 1 nM MER, 700 μM ATP
Outline: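 Enzyme preincubated with compound 1 h at RT; final 5 nM AXL or 1 nM TYRO3/MER, 800 nM TK substrate-biotin, 700 μM ATP, HEPES pH 7.4, MgCl2, 1% DMSO, 2 h at RT. HTRF 665/620 ratio read after streptavidin-XL665/cryptate antibody detection; percent activity relative to DMSO and pre-stopped controls.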

Row | IC50 [nM] | Compound
1 | < 100 | Cc1cc2c(cc1-c1cnc3[nH]nc(-c4ccc5c(c4)OCCNC5=O)c3c1)CCC(N1CCC[C@H]1C)CC2 (stereo partly drawn) [Example 64, 8-(5-{3-Methyl-7-[(2R)-2-methylpyrrolidin-1-yl]-6,7,8,9-tetrahydro-5H-benzo[7]annulen-2-yl}-1H-pyrazolo[3,4-b]pyridin-3-yl)-2,3,4,5-tetrahydro-1,4-benzoxazepin-5-one]
2 | < 100 | C[C@@H]1CCCN1C1CCc2cc(-c3cnc4[nH]nc(-c5ccc6c(c5)OCCNC6=O)c4c3)cc(Cl)c2CC1 (stereo partly drawn) [Example 65, 8-(5-{4-Chloro-7-[(2R)-2-methylpyrrolidin-1-yl]-6,7,8,9-tetrahydro-5H-benzo[7]annulen-2-yl}-1H-pyrazolo[3,4-b]pyridin-3-yl)-2,3,4,5-tetrahydro-1,4-benzoxazepin-5-one]
3 | 100 to 1000 | C[C@@H]1CCCN1C1CCc2ccc(-c3cnc4[nH]nc(-c5ccc6c(c5)OCCNS6(=O)=O)c4c3)cc2CC1 (stereo partly drawn) [Example 66, 7-(5-{7-[(2R)-2-Methylpyrrolidin-1-yl]-6,7,8,9-tetrahydro-5H-benzo[7]annulen-2-yl}-1H-pyrazolo[3,4-b]pyridin-3-yl)-3,4-dihydro-2H-5,12,2-benzoxathiazepine-1,1-dione]

— US20240226115A1, “AXL INHIBITOR COMPOUNDS” (ARCUS BIOSCIENCES, INC., priority 2021, published 2024)
